Four compounds from PMC7433010, “Exploration of multi‐target effects of 3‐benzoyl‐5‐hydroxychromen‐2‐one in Alzheimer’s disease cell and mouse models” (Aging Cell, 2020) can be followed below.

The series in a line: Cytotoxicity by survived cell number in 293 cells expressing ∆K280 TauRD‐DsRed. The format is cell-based. Conditions: human; for IC50 at 3 days: 293 cells expressing ∆K280 TauRD‐DsRed for 3 days; for viability at 3 days, 1 µM: % of cells without treatment. The text has this: In ∆K280 TauRD‐DsRed 293 cells, a proaggregant (ΔK280) Tau repeat domain (TauRD) containing residues 244–372 of the full‐length 4R2N Tau441 was fused in‐frame with DsRed fluorophore. Compared to the wild‐type TauRD, the poorly folded ΔK280 TauRD formed aggregates, which adversely affected the folding of fused DsRed and thus decreased DsRed fluorescence, as also evidenced by increase in thioflavin S fluorescence emission (Chang et al., 2017). Thioflavin S is a reporter dye for studies of Tau toxicity and pharmacologic prevention in cell model of tauopathy (Pickhardt et al., 2017). It binds to amyloid fibrils but not monomers and gives a distinct increase in fluorescence emission. Inhibition of Tau aggregation may improve DsRed misfolding, leading to increased fluorescence in ΔK280 TauRD‐DsRed‐expressing cells. Utilizing the established Tet‐on ΔK280 TauRD‐DsRed 293 cells (Chang et al., 2016), licochalcone A and LM compounds were tested for effects of reducing Tau misfolding and anti‐oxidation (Figure S2a). Congo red was included for comparison. […] In the following experiments, DsRed fluorescence was measured in wells containing at least 80% viable cells. […] Due to the features of their effectiveness and less cytotoxicity, licochalcone A (1 μM) and LM‐031 (1 μM) were chosen as the candidate compounds for the following experiments. […] Representative DsRed and thioflavin S fluorescent images of ∆K280 TauRD‐DsRed‐expressing cells untreated or treated with congo red (10 µM), licochalcone A (1 µM), or LM‐031 (1 µM) are shown in Figure S2d.
DsRed fluorescence of proaggregant ∆K280 TauRD-DsRed 293 cells was evaluated to reflect Tau aggregation. On day 1, cells were seeded on a 96-well plate in a density of 0.8 × 10^4 cells/well. […] On the fifth day, the cells were stained with Hoechst 33342 (0.1 µg/ml; Sigma-Aldrich) for 30 min to identify total cell number; DsRed fluorescence images (543 nm excitation and 593 nm emission) were automatically captured by using the ImageXpressMICRO high-content imaging system (Molecular Devices, Sunnyvale, CA, USA) and analyzed using MetaXpress image acquisition and analysis software (Molecular Devices). In addition, the cells were fixed with paraformaldehyde (4% in PBS) for 15 minutes, permeabilized with methanol (80%) for 6 minutes at -20°C, incubated with thioflavin S (0.02%; Sigma-Aldrich) and 4’,6-diamidino-2-phenylindole (DAPI) (0.1 μg/ml; Sigma-Aldrich) for 5 minutes, and washed in ethanol (50%). Thioflavin S images ([…]) were captured and analyzed as described. In general, 2 × 10^4 cells in each biological replicate were analyzed.
Figure S2. ΔK280 TauRD-DsRed 293 cells. (a) Experimental flow chart. Cells were plated on day 1. On day 2, the cells were treated with congo red or test compounds for 8 h; addition of doxycycline (Dox; 1 µg/ml) followed. DsRed/thioﬂavin S fluorescence, ROS, and caspase 3 activity were assessed on day 5. (b) Cytotoxicity of the test compounds against 293 cells expressing ∆K280 TauRD-DsRed for 3 days using the survived cell number (n = 3). IC50 values are listed. (c) Dose response curves of LM-031 based on DsRed fluorescence measurement. (d) Fluorescent images of ΔK280 TauRD-DsRed 293 cells untreated or treated with congo red (10 µM), licochalcone A (1 µM), or LM-031 (1 µM). Nuclei were counterstained with Hoechst 33342 (blue), and merged DsRed and Hoechst 33342 signals were shown. In addition, tau aggregation was monitored by staining with thioﬂavin S (green).

The mark [1] stands for this setting: Tet-on ∆K280 TauRD-DsRed 293 cells (expression induced), ∆K280 TauRD‐DsRed‐expressing 293 cells.

Structures are written as SMILES.

Compound `COc1ccc(C(=O)/C=C/c2cc(Br)ccc2O)cc1` [LM‐004] displayed a 50% inhibitory concentration (IC50) at 3 days of 5 µM.

`O=C(c1ccccc1)c1cc2c(O)cccc2oc1=O` [LM‐031, 3‐benzoyl‐5‐hydroxychromen‐2‐one] returned an IC50 at 3 days of 56.6 µM. In addition, the viability at 3 days, 1 µM under setting [1] is 94 to 97%. The same compound gave a viability at 3 days, 10 µM (Tet-on ∆K280 TauRD-DsRed 293 cells (expression induced), 10 μM, ∆K280 TauRD‐DsRed‐expressing 293 cells) of 91%.

In turn, `Nc1c(/N=N/c2ccc(-c3ccc(/N=N/c4cc(S(=O)(=O)O)c5ccccc5c4N)cc3)cc2)cc(S(=O)(=O)O)c2ccccc12` [congo red, reference compound] registered an IC50 at 3 days of 36.9 µM. This counts as double-digit micromolar.

Turning to `C=CC(C)(C)c1cc(/C=C/C(=O)c2ccc(O)cc2)c(OC)cc1O` [licochalcone A, reference compound], the 50% inhibitory concentration (IC50) at 3 days came to 5.9 µM. For the same compound, the viability at 3 days, 1 µM under setting [1] lay within 94 to 97%.
